In patent publication US20070136834A1, “Method and system for real-time analysis of biosensor data” (priority 2005, published 2007):

Test system: naturally-occurring algae
Test: Variable chlorophyll fluorescence induction of naturally-occurring algae in Clinch River water, differential displacement (least-squares) analysis against control curve
Assay type: cell-based
Excerpt: Primary-source drinking water is monitored at regular intervals, for example every three to five minutes. • 2. Each (analog) chlorophyll fluorescence induction curve that is acquired for each interval is digitized and stored. The shape of each curve is a recording of the physiological status of the algae at that point in time. • 3. For each subsequent recording, such as three to five minutes later, the variable chlorophyll fluorescence induction curve at that time can be compared with the curve that was recorded three to five minutes earlier. • 4. By using a nonlinear least-squares fit of the current data with the previous curve, a quantitative assessment can be made that determines the degree of departure of the current curve as compared to its predecessor. • 5. Based on an algorithm, such as algorithms described herein, an objective real-time assessment of the degree of departure is obtained between the variable fluorescence curves and the correlation of that departure with the possible presence of toxins in the water.
Data analysis typically comprises three steps. […] Third, the set of numbers that comprises the transformation coefficient is analyzed for specific patterns analyzed by custom software to detect “fingerprints” for specific toxins such as chemical toxins. […]

With `COP(=S)(OC)Oc1ccc([N+](=O)[O-])cc1` [methyl parathion] the “effect on shape of variable fluorescence induction curve” value was “change the shape of the variable fluorescence induction curve”.
